# Laboratory results taken from ChEMBL document CHEMBL1795319, “Design, synthesis and antifungal evaluation of 1-(2-(2,4-difluorophenyl)-2-hydroxy-3-(1H-1,2,4-triazol-1-yl)propyl)-1H-1,2,4-triazol-5(4H)-one” (2011).
# What was measured:
# Type in all cases: functional
# Trichophyton rubrum = experiment: Antifungal activity against Trichophyton rubrum by micro-broth dilution method
# Candida tropicalis = experiment: Antifungal activity against Candida tropicalis by micro-broth dilution method
# Cryptococcus neoformans = experiment: Antifungal activity against Cryptococcus neoformans BLS108 after 72 hrs by micro-broth dilution method; details: BLS108, 72 h
# Kluyveromyces marxianus = experiment: Antifungal activity against Candida kefyr by micro-broth dilution method
# Candida albicans [1] = experiment: Antifungal activity against Candida albicans SC5314 after 24 hrs by micro-broth dilution method; details: SC5314, 24 h
# Aspergillus fumigatus = experiment: Antifungal activity against Aspergillus fumigatus by broth microdilution method
# Candida parapsilosis = experiment: Antifungal activity against Candida parapsilosis by micro-broth dilution method; details: Lodderomyces parapsilosis
# Candida albicans [2] = experiment: Antifungal activity against Candida albicans Y0109 after 24 hrs by micro-broth dilution method; details: Y0109, 24 h
SMILES,MIC80 (Trichophyton rubrum) [µg/mL],MIC80 (Candida tropicalis) [µg/mL],MIC80 (Cryptococcus neoformans) [µg/mL],MIC80 (Kluyveromyces marxianus) [µg/mL],MIC80 (Candida albicans [1]) [µg/mL],MIC80 (Aspergillus fumigatus) [µg/mL],MIC80 (Candida parapsilosis) [µg/mL],MIC80 (Candida albicans [2]) [µg/mL]
C[C@@H](c1ncncc1F)[C@](O)(Cn1cncn1)c1ccc(F)cc1F [VORICONAZOLE],0.0156,0.0039,0.0039,0.0039,0.0039,0.0039,0.0039,0.0039
OC(Cn1cncn1)(Cn1cncn1)c1ccc(F)cc1F [FLUCONAZOLE],1,1,1,4,0.25,> 64,0.25,0.25
C[C@@H]1[C@H](O)[C@@H](C)/C=C/C=C/C=C/C=C/C=C/C=C/C=C/[C@H](O[C@@H]2O[C@H](C)[C@@H](O)[C@H](N)[C@@H]2O)C[C@@H]2O[C@](O)(C[C@@H](O)C[C@@H](O)[C@H](O)CC[C@@H](O)C[C@@H](O)CC(=O)O[C@H]1C)C[C@H](O)[C@H]2C(=O)O [AMPHOTERICIN B],4,1,1,0.25,0.25,1,0.25,0.25
O=C(Nc1ccc(-n2cnn(CC(O)(Cn3cncn3)c3ccc(F)cc3F)c2=O)cc1)c1cccnc1 (racemic),64,4,64,16,1,> 64,1,1
O=C(Nc1ccc(-n2cnn(CC(O)(Cn3cncn3)c3ccc(F)cc3F)c2=O)cc1)c1ccco1 (racemic),> 64,1,16,4,0.25,> 64,0.0625,0.25
O=c1n(-c2ccccc2Cl)cnn1CC(O)(Cn1cncn1)c1ccc(F)cc1F (racemic),64,1,64,0.25,1,> 64,16,1
O=c1n(-c2nccs2)cnn1CC(O)(Cn1cncn1)c1ccc(F)cc1F (racemic),16,1,64,1,0.25,> 64,0.25,1
Cc1ccc(-n2cnn(CC(O)(Cn3cncn3)c3ccc(F)cc3F)c2=O)nc1 (racemic),16,64,16,4,4,> 64,4,4
CCCCC(=O)Nc1ccc(-n2cnn(CC(O)(Cn3cncn3)c3ccc(F)cc3F)c2=O)cc1 (racemic),> 64,0.0625,0.0625,64,0.00097,> 64,0.00024,0.00024
Cc1ccc(-n2cnn(CC(O)(Cn3cncn3)c3ccc(F)cc3F)c2=O)cc1 (racemic),64,0.25,64,0.25,0.25,> 64,4,1
O=C(Nc1ccc(-n2cnn(CC(O)(Cn3cncn3)c3ccc(F)cc3F)c2=O)cc1)c1cccs1 (racemic),> 64,16,> 64,> 64,0.25,> 64,4,1
O=c1n(-c2ccc([N+](=O)[O-])cc2)cnn1CC(O)(Cn1cncn1)c1ccc(F)cc1F (racemic),16,0.25,64,0.25,1,> 64,16,1
O=c1n(-c2ccc(F)cc2)cnn1CC(O)(Cn1cncn1)c1ccc(F)cc1F (racemic),64,0.25,> 64,0.25,1,> 64,4,1
CCCC(=O)Nc1ccc(-n2cnn(CC(O)(Cn3cncn3)c3ccc(F)cc3F)c2=O)cc1 (racemic),> 64,4,> 64,16,4,> 64,4,4
O=c1n(-c2ccc(Br)cc2)cnn1CC(O)(Cn1cncn1)c1ccc(F)cc1F (racemic),16,0.0625,16,0.0156,1,> 64,1,0.156
N#CCC(=O)Nc1ccc(-n2cnn(CC(O)(Cn3cncn3)c3ccc(F)cc3F)c2=O)cc1 (racemic),16,1,> 64,> 64,0.25,> 64,1,1
